18 compounds from patent US20100184851A1, “INHIBITION OF CELL PROLIFERATION” (priority 2008, published 2010) can be followed below.

A word on the inhibition: it is the drop in the measured response relative to a control, in per cent. Usually melting point stands for the temperature, or range, at which the solid turns liquid.

The target of one data set is T1, Rb:Raf-1 binding (Homo sapiens, UniProt P06400).
T1 construct: a glutathione S-transferase (GST) Raf-1 (1-149aa) overnight at 4° C; made in house
T1 sequence (P06400 1-928): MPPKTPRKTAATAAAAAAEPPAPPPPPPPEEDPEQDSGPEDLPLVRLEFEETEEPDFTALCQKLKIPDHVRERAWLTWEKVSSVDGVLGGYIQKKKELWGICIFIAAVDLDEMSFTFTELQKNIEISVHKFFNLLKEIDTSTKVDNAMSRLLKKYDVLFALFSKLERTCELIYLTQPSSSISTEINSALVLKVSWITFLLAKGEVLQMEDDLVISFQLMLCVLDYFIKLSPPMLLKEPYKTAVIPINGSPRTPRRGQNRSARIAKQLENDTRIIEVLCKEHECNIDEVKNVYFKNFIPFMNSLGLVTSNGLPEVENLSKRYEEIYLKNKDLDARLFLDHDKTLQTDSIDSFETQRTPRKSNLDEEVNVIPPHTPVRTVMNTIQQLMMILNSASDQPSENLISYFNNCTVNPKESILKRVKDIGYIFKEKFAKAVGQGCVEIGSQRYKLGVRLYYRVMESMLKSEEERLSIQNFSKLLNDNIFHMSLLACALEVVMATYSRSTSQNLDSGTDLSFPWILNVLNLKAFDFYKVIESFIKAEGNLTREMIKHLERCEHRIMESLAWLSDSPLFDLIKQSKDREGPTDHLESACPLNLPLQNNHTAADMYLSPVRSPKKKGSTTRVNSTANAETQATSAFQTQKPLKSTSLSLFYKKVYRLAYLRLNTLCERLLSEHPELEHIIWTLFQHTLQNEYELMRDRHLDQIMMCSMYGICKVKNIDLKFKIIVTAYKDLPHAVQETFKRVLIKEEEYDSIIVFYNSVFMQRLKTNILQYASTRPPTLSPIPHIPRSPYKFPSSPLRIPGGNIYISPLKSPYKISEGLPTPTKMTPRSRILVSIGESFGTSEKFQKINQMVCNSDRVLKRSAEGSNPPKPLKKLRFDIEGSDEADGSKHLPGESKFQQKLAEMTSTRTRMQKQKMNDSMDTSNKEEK
Description: GST-Rb/GST-Raf-1 ELISA, inhibition of Rb:Raf-1 binding. Here is the method:
Cell culture and transfection. The human promyelocytic leukemia cell line U937 was cultured in RPMI (Mediatech, Hernden, Va.) containing 10% fetal bovine serum (FBS; Mediatech). U2-OS, Saos-2, MCF7, PANC1 and MDA-MB-231 cell lines were cultured in Dulbecco modified Eagle Medium (DMEM; Mediatech) containing 10% FBS. A549 cells and A549 shRNA Rb cell lines were maintained in Ham F-12K supplemented with 10% FBS. ShRNA cells lines were maintained in media containing 0.5 μg/mL puromycin. H1650, PC-9 and Aspc1 cell line were cultured in RPMI (Gibco/Invitrogen, Carlsbad, Calif.) containing 10% FBS. PANC1 and CAPAN2 pancreatic cell lines and the A375 Melanoma cell line was grown in DMEM supplemented with 10% FBS. Human aortic endothelial cells (HAECs, Clonetics, San Diego, Calif.) were cultured in endothelial growth medium, supplemented with 5% FBS, according to the manufacturer's instructions. U251MG and U87MG glioma cell lines were maintained in DMEM supplemented with non-essential amino acids, […] β-mercaptoethanol, and 10% FBS. ShRNA cell lines were made by stably transfecting A549 cells with two different shRNA constructs that specifically target Rb obtained from a library. The adenovirus (Ad) constructs Ad-green fluorescent protein (GFP) and Ad-E2F1 were obtained from W. D. Cress. Ad-cyclin D was provided by I. Cozar-Castellano. In vitro library screening assays. Enzyme Linked ImmunoSorbent Assay (ELISA) 96-well plates were coated with 1 μg/mL of a glutathione S-transferase (GST) Raf-1 (1-149aa) overnight at 4° C. […] GST-Rb +/− compounds were then added to the plate and incubated for 90 minutes (min) at 37° C. The amount of Rb bound to Raf-1 was detected by Rb polyclonal antibody (Santa Cruz Biotechnology, Santa Cruz, Calif.) 1:1000 incubated for 60 min at 37° C. Donkey-anti-rabbit-IgG-HRP (1:10,000) was added to the plate and incubated at 37° C. for 60 minutes. The color was developed with orthophenylenediamine (Sigma, St. Louis, Mo.) and the reaction was terminated with 3 molar (M) H2SO4. Absorbance was read at 490 nanometers (nm). To determine disruption of Rb to E2F1, Phb, or HDAC1 the above protocol was used with the exception of coating GST Rb on the ELISA plate and adding the drugs in the presence or absence of GST E2F1, Phb, or HDAC1. E2F1 monoclonal antibody (1:2000) was used to detect the amount of Rb bound to E2F1. Prohibition monoclonal antibody was used at 1:1000 to detect the amount of Rb bound to Prohibition. For disruption of MEK-Raf-1 binding ELISAs, Raf-1 1 microgram/milliliter (μg/mL) was coated on the plate and GST-MEK (20 μg/mL) was incubated +/− the compounds for 30 minutes at room temperature. Mek1 polyclonal antibody was used at 1:1000 to detect the binding of Raf-1 to Mek1. The IC50 concentrations for the Rb:Raf-1 inhibitors were determined by plotting with Origin 7.5 software (Origin, Northampton, Mass.). In vitro binding assays. Glutathione S-transferase (GST) fusion of Rb, Raf-1, E2F1, and MEK1 have been previously described (Dasgupta P, Sun J, Wang S, et al. Mol Cell Biol 2004; 24(21):9527-9541). First, 200 micrograms (pig) of U937 asynchronous lysates were pre-incubated with 10 μM of the indicated drugs or 1 μM of the Raf-1 peptide for 30 minutes at 4° C. Next, 200 μg of the U937 lysates were incubated with glutathione beads carrying an equal amount of the GST fusion proteins in 200 μl of protein binding buffer (20 mM Tris [pH 7.5], 50 mM KCL, 0.5 mM EDTA, 1 mM dithiothreitol, 0.5% NP-40, 3 mg of bovine serum albumin/mL) at 4° C. for 2 h. (Wang S, Ghosh R, Chellappan S. Mol Cell Biol 1998; 18(12):7487-7498). Matrigel Assays. Matrigel (Collaborative Biomedical Products) was used to promote the differentiation of HAECs into capillary tube-like structures (Dasgupta P, Sun J, Wang S, et al. Mol Cell Biol 2004; 24(21):9527-9541). A total of 100 μl of thawed Matrigel was added to 96-well tissue culture plates, followed by incubation at 37° C. for 60 minutes to allow polymerization. […]

In data set [1] the test system is A549 cells lacking Raf-1 (sh-13B). Description: BrdU incorporation, A549 cells lacking Raf-1. In kind it is cell-based, human. As to conditions: 20 μM. Here is the method: A549 cells lacking Raf-1 (sh-13B) were generated by stably transfecting a shRNA to Raf-1. Control cells were generated by stably transfecting A549 cells with a control shRNA. The cells were incubated in the presence or absence of compounds 3a, 10b and 10c (20 μM) and S-phase entry was assessed by measuring BrdU incorporation. Relative to controls incubated in the absence of compound, proliferation of the cells with control shRNA (having Raf-1) was inhibited by each of the compounds. In contrast, proliferation of the cells lacking Raf-1 (the cells transfected with Raf-inhibitory shRNA) was not inhibited by the compound. This experiment provides evidence that inhibition of cell proliferation by compounds of the invention is mediated by Raf-1 […].
In general terms: Dividing cells build labelled thymidine or BrdU into new DNA.

Where [2] appears, read: read-out: inhibition of the Rb:Raf-1 interaction.
The mark [3] stands for this setting: class symbols, 10 μM, read-out: % Inhibition at 10 or 20 μM.
The mark [4] stands for this setting: class symbol **, 20 μM, read-out: Inhibition at 10 μM or 20 μM.
[5] abbreviates: at 20 μM, read-out: Inhibition at 10 μM or 20 μM.
The mark [6] stands for this setting: first value of cell, concentration not printed (head: 10 μM), read-out: Inhibition at 10 μM or 20 μM.

Molecules are shown by their SMILES. Structures can show the parent of a compound that is named as a salt. Where two headings read alike, the source gives them in different places.

Take `N=C(N)SCc1ccc(Cl)cc1Cl` [Compound 1, reference compound]: the inhibition at 20 µM on Rb:Raf-1 binding (setting [2]) worked out at 100%.
Still for that read-out and setting: under `N=C(N)SCc1ccc(Cl)c2ccccc12` [Compound 2, reference compound] stands 95%.
`Cl.N=C(N)SCc1ccc(Cl)cc1Cl` [Compound 3a, (2,4-Dichlorophenyl)methyl Isothiourea Hydrochloride]: the “proliferation (S-phase entry, BrdU incorporation)” value (from here on “proliferation”) in data set [1] was “not inhibited”.
For `N=C(N)SCc1ccc(Cl)cc1[N+](=O)[O-]` [Compound 3u, (4-Chloro-2-nitrophenyl)methyl Isothiourea Hydrochloride], on Rb:Raf-1 binding (setting [3]), the inhibition at 10 µM was 25 to 50%.
Same read-out and setting: under `N=C(N)SCc1ccc(F)cc1Cl` [Compound 3v, 2-Chloro-4-fluorophenyl)methyl isothiourea Hydrochloride] stands 50 to 100%; under `N=C(N)SCc1ccc(F)cc1F` [Compound 3w, (2,4-Difluorophenyl)methyl isothiourea Hydrochloride], 50 to 100%.
`Cl.N=C(N)NC(=N)SCc1ccc(F)cc1Cl` [Compound 10a, (2-Chloro-4-fluorophenyl)methyl Amidinoisothiourea Hydrochloride] returned a melting point of 154 to 156 °C. The inhibition at 20 µM on Rb:Raf-1 binding (setting [4]) lay within 50 to 100%.
As to `Cl.N=C(N)NC(=N)SCc1ccc(F)cc1F` [Compound 10b, (2,4-Difluorophenyl)methyl Amidinoisothiourea Hydrochloride], the melting point was 144 to 146 °C. For the same compound, the inhibition at 20 µM at Rb:Raf-1 binding (setting [4]) was 50 to 100%. Besides, the “proliferation” value in data set [1] is “not inhibited”.
As for `Cl.N=C(N)NC(=N)SCc1ccc(Cl)cc1Cl` [Compound 10c, (2,4-Dichlorophenyl)methyl Amidinoisothiourea Hydrochloride], the melting point fell in the range of 139 to 142 °C. On Rb:Raf-1 binding (setting [4]), the inhibition at 20 µM was in the range of 50 to 100%. Besides, in data set [1], the “proliferation” value is recorded as “not inhibited”.
With `Cl.N=C(N)NC(=N)SCc1ccc(Cl)cc1[N+](=O)[O-]` [Compound 10d, (2-Nitro-4-chlorophenyl)methyl Amidinoisothiourea Hydrochloride], the melting point is 183 to 185 °C. Also, the inhibition at 10 µM on Rb:Raf-1 binding (class symbol +, 10 μM, read-out: Inhibition at 10 μM or 20 μM) is 25 to 50%.
In the case of `N#Cc1ccc(CSC(=N)NC(=N)N)cc1` [Compound 10e, (4-Cyanophenyl)methyl Amidinoisothiourea Hydrochloride], the inhibition at 20 µM on Rb:Raf-1 binding (setting [5]) worked out at 22%. In addition, the inhibition at 10 µM on Rb:Raf-1 binding (setting [6]) was 6%.
Turning to `N=C(N)NC(=N)SCc1cc(Cl)ccc1Cl` [Compound 10f, (2,5-Dichlorophenyl)methyl Amidinoisothiourea Hydrochloride], the inhibition at 20 µM on Rb:Raf-1 binding (setting [4]) was in the range of 50 to 100%.
Same read-out and setting: then `N=C(N)NC(=N)SCc1c(F)cccc1Cl` [Compound 10g, (2-Chloro-6-fluorophenyl)methyl Amidinoisothiourea Hydrochloride], with 50 to 100%; and `N=C(N)NC(=N)SCc1cc2c(cc1Cl)OCO2` [Compound 10h, (6-Chlorobenzo[d][1,3-dioxol-5-yl)methyl Amidinoisothiourea Hydrochloride], with 50 to 100%.
Turning to `N=C(N)NC(=N)SCc1ccc(Cl)c(F)c1` [Compound 10i, (4-Chloro-3-fluorophenyl)methyl Amidinoisothiourea Hydrochloride], the inhibition at 20 µM on Rb:Raf-1 binding (setting [5]) is 42%. Further, the inhibition at 10 µM on Rb:Raf-1 binding (setting [6]) amounted to 6%.
Take `N=C(N)NC(=N)SCc1c(F)cccc1F` [Compound 10j, (2,6-Difluorophenyl)methyl Amidinoisothiourea Hydrochloride]: at Rb:Raf-1 binding (setting [4]), the inhibition at 20 µM is 50 to 100%.
Regarding `Cl.N=C(N)NC(=N)SCc1ccc2ccccc2c1` [Compound 11a, (2-Naphthyl)methyl Amidinoisothiourea hydrochloride], the melting point is 175 to 177 °C. At Rb:Raf-1 binding (read-out: Inhibition at 10 μM), the inhibition at 10 µM fell in the range of 50 to 100%.
In the case of `Cl.N=C(N)NC(=N)SCc1ccc2ccccc2c1Br` [Compound 11b, 2-(1-Bromonaphthyl)methyl amidinoisothiourea hydrochloride], the melting point lay in the range of 160 to 162 °C. At Rb:Raf-1 binding (read-out: Inhibition at 10 μM), the inhibition at 10 µM was 50 to 100%.
